Experimental findings from paper PMC9311865, “Covalent Allosteric Inhibitors of Akt Generated Using a Click Fragment Approach” (Chemmedchem, 2022) are described below.

The test system of one data set is AN3CA cells. Put plainly: CellTiter-Glo Luminescent Cell Viability Assay, AN3CA. Format: cell-based. The settings on record: Homo sapiens, AN3-CA, read-out: EC50 AN3CA.
In the next data set the test system is KU-19-19 cells. The data set is described as follows: CellTiter-Glo Luminescent Cell Viability Assay, KU-19-19. The settings on record: Homo sapiens, bladder cancer cell line, Akt1 E17K/E49K, mean ± SD, n=3. Format: cell-based. As to the method:
The potential in vitro antiproliferative activity of the synthesised target compounds was investigated against a number of cancer cell lines by the CellTiter‐Glo® Luminescent Cell Viability Assay (from Promega Corporation, USA, catalogue number: G7570). The half‐maximal effective concentrations (EC50) of these compounds were determined against the AN3‐CA, BT‐474, KU‐19‐19, MCF‐7, T‐47D and ZR‐75‐1 cell lines originating from various tissues, i. e., breast, endometrium and bladder (Table S1). […]
The CellTiter-Glo® Luminescent Cell Viability Assay from Promega was used for the cellular assays, performed as explained by Weisner et al.7,8 Information on the cancer cell lines are given in Table S1, the control compounds used in Figure S3 and the results in Table S2.
Table S1. The cell lines used for the cellular assays, including what cancer type they are predominantly found in, and where the cell lines were acquired form.
Cell line Cancer type Acquired from AN3CA Endometrium ATCC (provided by Prof. Jan G. Hengstler at Leibniz-Institut für Arbeitsforschung Dortmund)
KU-19-19 Bladder Deutsche Sammlung von Mikroorganismen und Zellkulturen […]
BT-474 CLS Cell Lines Service (provided by Prof. Jan G. Hengstler at […] Leibniz-Institut für Arbeitsforschung Dortmund)
(ATP-based viability assays read luminescence as a measure of living cells.)

The subject of the next data set is BT-474 cells. Put plainly: CellTiter-Glo Luminescent Cell Viability Assay, BT-474. The format is cell-based. The settings on record: Homo sapiens.
The subject of the next data set is MCF-7 cells. Put plainly: CellTiter-Glo Luminescent Cell Viability Assay, MCF-7. Format: cell-based. The settings on record: Homo sapiens.
A further data set concerns T47D cells. Put plainly: CellTiter-Glo Luminescent Cell Viability Assay, T47D. The format is cell-based. The settings on record: Homo sapiens, breast cancer cell line, mean ± SD, n=3.
Another data set has as its system ZR-75-1 cells. Put plainly: CellTiter-Glo Luminescent Cell Viability Assay, ZR-75-1. The format is cell-based. The settings on record: Homo sapiens.
Another data set deals with T1, Akt2 (Homo sapiens, UniProt P31751).
T1 construct: purchased ProQinase
T1 sequence (P31751 whole entry): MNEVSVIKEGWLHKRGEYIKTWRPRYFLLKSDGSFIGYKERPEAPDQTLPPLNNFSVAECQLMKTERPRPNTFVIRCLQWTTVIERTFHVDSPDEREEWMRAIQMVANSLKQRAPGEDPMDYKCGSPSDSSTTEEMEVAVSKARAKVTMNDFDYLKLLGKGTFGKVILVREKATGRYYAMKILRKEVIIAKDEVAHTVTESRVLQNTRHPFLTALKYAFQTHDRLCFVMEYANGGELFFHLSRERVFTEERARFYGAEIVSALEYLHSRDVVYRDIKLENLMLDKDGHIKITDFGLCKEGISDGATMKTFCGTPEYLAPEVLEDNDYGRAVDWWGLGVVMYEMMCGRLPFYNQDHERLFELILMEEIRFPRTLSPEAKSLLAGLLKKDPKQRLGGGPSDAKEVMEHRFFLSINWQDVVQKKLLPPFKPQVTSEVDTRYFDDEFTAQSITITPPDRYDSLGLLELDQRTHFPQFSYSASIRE
The data set is described as follows: HTRF KinEASE assay, IC50 against Akt2. The format is biochemical. To be noted: wild-type Akt2; mean ± SD, n=3.

The target of a further data set is Akt1 (Homo sapiens, UniProt P31749). Put plainly: HTRF KinEASE assay, IC50 against Akt1. To be noted: mean ± SD, n=3; for IC50: IC50 Akt1, wild-type Akt1.
Chain of Akt1 (P31749 whole entry): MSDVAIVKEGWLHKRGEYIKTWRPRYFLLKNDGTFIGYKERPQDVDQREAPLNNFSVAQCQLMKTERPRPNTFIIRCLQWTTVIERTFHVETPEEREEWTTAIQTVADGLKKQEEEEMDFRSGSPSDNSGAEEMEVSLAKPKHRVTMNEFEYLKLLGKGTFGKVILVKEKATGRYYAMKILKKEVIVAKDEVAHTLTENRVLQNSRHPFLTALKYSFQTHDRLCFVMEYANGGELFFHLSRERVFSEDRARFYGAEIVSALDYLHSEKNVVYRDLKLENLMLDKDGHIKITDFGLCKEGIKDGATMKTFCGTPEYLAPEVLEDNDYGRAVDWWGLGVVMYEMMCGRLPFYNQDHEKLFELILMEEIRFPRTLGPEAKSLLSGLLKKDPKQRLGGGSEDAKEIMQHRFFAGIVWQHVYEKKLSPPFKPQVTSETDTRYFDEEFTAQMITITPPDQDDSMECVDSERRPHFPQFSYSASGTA
Another data set deals with Akt3 (Homo sapiens, UniProt Q9Y243). The data set is described as follows: HTRF KinEASE assay, IC50 against Akt3. A general note: In TR-FRET formats the signal depends on donor and acceptor labels being close together.
Chain of Akt3 (Q9Y243 whole entry): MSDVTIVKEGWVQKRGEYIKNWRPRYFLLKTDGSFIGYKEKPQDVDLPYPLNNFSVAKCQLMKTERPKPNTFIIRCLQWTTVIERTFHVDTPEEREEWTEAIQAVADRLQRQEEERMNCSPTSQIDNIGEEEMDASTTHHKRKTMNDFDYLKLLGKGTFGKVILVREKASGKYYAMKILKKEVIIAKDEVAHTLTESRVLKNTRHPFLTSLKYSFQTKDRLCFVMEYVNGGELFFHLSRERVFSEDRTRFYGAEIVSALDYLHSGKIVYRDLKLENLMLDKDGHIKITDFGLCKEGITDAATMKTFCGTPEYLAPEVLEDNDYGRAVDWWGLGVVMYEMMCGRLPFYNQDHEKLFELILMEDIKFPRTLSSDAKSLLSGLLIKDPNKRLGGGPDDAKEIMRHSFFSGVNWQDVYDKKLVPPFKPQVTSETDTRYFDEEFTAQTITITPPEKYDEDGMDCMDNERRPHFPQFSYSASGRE
Where [1] appears, read: BT-474, breast cancer cell line, mean ± SD, n=3, read-out: EC50 BT‐474.
Where [2] appears, read: ZR-75-1, breast cancer cell line, mean ± SD, n=3, read-out: EC50 ZR‐75‐1.
[3] abbreviates: endometrium cancer cell line, mean ± SD, n=3.
[4] abbreviates: MCF7, breast cancer cell line, mean ± SD, n=3, read-out: EC50 MCF‐7.

In general, EC50 refers to the concentration giving half of the maximal effect. What is called IC50 is the midpoint of a concentration-inhibition curve. A higher IC50 goes with weaker potency. The term melting point denotes the temperature, or range, at which the solid turns liquid.

Like-named read-outs stand apart in the source and are kept apart here.

Text for Akt1: (§1) The homogeneous time‐resolved fluorescence (HTRF®) KinEASE™ assay by Cisbio was used to determine the half‐maximal inhibitory concentration (IC50) values of the synthesised compounds against Akt1, Akt2 and Akt3 (Table 1).[26]
(§2) The HTRF® KinEASE™ assay (Cisbio) was used to determine the IC 50 values of the synthesised
(§3) al. (Akt2 and Akt3).1,5 The three wild-type Akt isoforms used were acquired from ProQinase.
Text for Akt2: as §1, §2, §3
Text for Akt3: as §1, §2, §3

On to `CC(C)NC[C@@H](C(=O)N1CCN(c2ncnc3c2[C@H](C)C[C@H]3O)CC1)c1ccc(Cl)cc1` [Ipatasertib, reference compound], for which the 50% effective concentration (EC50) turned out to be 0.925 ± 0.457 µM with AN3CA cells; 4.23 ± 3.39 µM with KU-19-19 cells; 2.37 ± 0.745 µM in the data set on BT-474 cells (BT-474, read-out: EC50 BT‐474); 5.04 ± 1.83 µM in the data set with MCF-7 cells (MCF7, read-out: EC50 MCF‐7); 0.447 ± 0.002 µM in the data set on T47D cells; 0.219 ± 0.083 µM in the data set on ZR-75-1 cells (ZR-75-1, read-out: EC50 ZR‐75‐1).

In the case of `NC1(c2ccc(-c3nc4ccn5c(=O)[nH]nc5c4cc3-c3ccccc3)cc2)CCC1` [MK‐2206, reference compound], the values for the concentration for a half-maximal effect (EC50) with KU-19-19 cells, in the data set on BT-474 cells (setting [1]) and in the data set on ZR-75-1 cells (setting [2]) were 5.53 ± 0.927 µM, 1.68 ± 0.316 µM and 0.063 ± 0.021 µM, respectively.

The molecule `C=CC(=O)Nc1ccc(-c2cn(C3CCN(Cc4ccc(-c5nc6ccccn6c5-c5ccccc5C)cc4)CC3)nn2)cc1` [Compound 8, N ‐{4‐[1‐(1‐{4‐[3‐(o‐Tolyl)imidazo[1,2‐a]pyridin‐2‐yl]benzyl}piperidin‐4‐yl)‐1H‐1,2,3‐triazol‐4‐yl]phenyl}acrylamide] registered a melting point of 169 to 170 °C. For the same molecule, the IC50 against Akt2 is over 20 µM. Besides, the EC50 with AN3CA cells (setting [3]) worked out at 5.87 ± 0.403 µM. In the data set with KU-19-19 cells, this molecule returned an EC50 of 7.63 ± 0.636 µM. In the data set on BT-474 cells (setting [1]), the EC50 stood at 7.39 ± 2.34 µM. Also, the EC50 with MCF-7 cells (setting [4]) was determined as 4.3 ± 1.18 µM. In addition, the EC50 in the data set with T47D cells is 4.52 ± 1.59 µM. Moreover, the EC50 with ZR-75-1 cells (setting [2]) was 5.32 ± 0.426 µM. The molecule further gave an IC50 at Akt1 of over 20 µM. At Akt3, the IC50 is over 20 µM.

As to `C=CC(=O)Nc1cccc(-c2cn(C3CCN(Cc4ccc(-c5nc6ccccn6c5-c5cccc(C)c5)cc4)CC3)nn2)c1` [Compound 9, N ‐{3‐[1‐(1‐{4‐[3‐(m‐Tolyl)imidazo[1,2‐a]pyridin‐2‐yl]benzyl}piperidin‐4‐yl)‐1H‐1,2,3‐triazol‐4‐yl]phenyl}acrylamide], the melting point was in the range of 130 to 132 °C. The same molecule yielded an IC50 on Akt2 of over 20 µM. Besides, the EC50 with AN3CA cells (setting [3]) is 5.13 ± 1.28 µM. The same molecule returned a concentration for a half-maximal effect (EC50) in the data set on KU-19-19 cells of 9.45 ± 1.04 µM. Besides, the EC50 in the data set on BT-474 cells (setting [1]) was found to be 11.2 ± 4.73 µM. Besides, the EC50 in the data set with MCF-7 cells (setting [4]) turned out to be 3.61 ± 0.804 µM. For the same molecule, the EC50 in the data set on T47D cells was determined as 4.59 ± 1.31 µM. In addition, the EC50 with ZR-75-1 cells (setting [2]) amounted to 4.2 ± 0.817 µM. Further, the IC50 on Akt1 was over 20 µM. Also, on Akt1 (wild-type Akt1), the “IC50 Akt1” value is “inactive”. Also, the half-inhibitory concentration (IC50) against Akt3 is over 20 µM.

With `NC1(C(=O)N[C@@H](CCO)c2ccc(Cl)cc2)CCN(c2ncnc3[nH]ccc23)CC1` [Capivasertib, reference compound], the EC50 in the data set with KU-19-19 cells is 3.06 ± 2.33 µM; in the data set with BT-474 cells (setting [1]), 1.6 ± 0.45 µM; in the data set with MCF-7 cells (setting [4]) it was 2.65 ± 0.555 µM.

On to `C=CC(=O)Nc1ccc2[nH]c(=O)n(C3CCN(Cc4ccc(-c5nc6cc[nH]c(=O)c6cc5-c5ccccc5)cc4)CC3)c2c1` [Compound 2, borussertib, reference compound], for which the concentration giving a half-maximal response (EC50) in the data set on KU-19-19 cells came to 7.82 ± 3.27 µM; in the data set with BT-474 cells (BT-474, read-out: EC50 BT‐474), 0.373 ± 0.054 µM; in the data set with MCF-7 cells (MCF7, read-out: EC50 MCF‐7) it was 0.277 ± 0.09 µM.

In turn, `C=CC(=O)Nc1ccccc1-c1cn(C2CCN(Cc3ccc(-c4nc5ccccn5c4-c4ccccc4C)cc3)CC2)nn1` [Compound 6, N ‐{2‐[1‐(1‐{4‐[3‐(o‐Tolyl)imidazo[1,2‐a]pyridin‐2‐yl]benzyl}piperidin‐4‐yl)‐1H‐1,2,3‐triazol‐4‐yl]phenyl}acrylamide] had a melting point of 128 to 130 °C. The molecule further gave an IC50 at Akt2 of over 20 µM. The EC50 in the data set with AN3CA cells (setting [3]) amounted to 14.7 ± 2.35 µM. In the data set with KU-19-19 cells, this molecule had an EC50 of 22 ± 4.98 µM. Moreover, the EC50 with BT-474 cells (setting [1]) was over 30 µM. For the same molecule, the EC50 in the data set with MCF-7 cells (setting [4]) came out at 18.2 ± 2.56 µM. This molecule returned an EC50 with T47D cells of over 30 µM. Further, in the data set with ZR-75-1 cells (setting [2]), the EC50 was determined as 15.5 ± 1.86 µM. For the same molecule, at Akt1, the 50% inhibitory concentration (IC50) was over 20 µM. In addition, at Akt3, the IC50 is over 20 µM.

In turn, `C=CC(=O)Nc1cccc(-c2cn(C3CCN(Cc4ccc(-c5nc6ccccn6c5-c5ccccc5C)cc4)CC3)nn2)c1` [Compound 7, N ‐{3‐[1‐(1‐{4‐[3‐(o‐Tolyl)imidazo[1,2‐a]pyridin‐2‐yl]benzyl}piperidin‐4‐yl)‐1H‐1,2,3‐triazol‐4‐yl]phenyl}acrylamide] came in with a melting point of 124 to 126 °C. At Akt2, this molecule showed an IC50 of over 20 µM. In addition, the EC50 in the data set with AN3CA cells (setting [3]) came out at 5.71 ± 0.706 µM. In the data set on KU-19-19 cells, this molecule returned an EC50 of 7.69 ± 0.664 µM. For the same molecule, the EC50 in the data set with BT-474 cells (setting [1]) is 9.91 ± 4.14 µM. Further, the EC50 in the data set with MCF-7 cells (setting [4]) was determined as 4.38 ± 1.59 µM. In addition, the EC50 in the data set with T47D cells amounted to 4.86 ± 0.627 µM. For the same molecule, in the data set with ZR-75-1 cells (setting [2]), the 50% effective concentration (EC50) stood at 4.19 ± 1.11 µM. Moreover, the IC50 on Akt1 was over 20 µM. Besides, the IC50 at Akt3 is over 20 µM.
